These are literature values, as cited in patent US20080064694A1, “Multi-Phase Release Methscopolamine Compositions” (Auriga Laboratories, Inc., priority 2006, published 2008).

Entries after “also recorded” stand apart in the source; their conditions may differ.

For the data set the following is noted: following administration of methscopolamine bromide.

Turning to “[7(S)-( 1α, 2β, 4β, 5α, 7β)]-7-(3-hydroxy-1oxo-2-phenylpropoxy)-9,9-dimethyl-3-Oxo-9-azoniatricyclo[3.3.1.0]nonane [Methscopolamine bromide]”, the adverse reactions observed entry was “Tachycardia, palpitation; also recorded: Severe allergic reaction or drug idiosyncrasies including anaphylaxis; also recorded: Headaches, nervousness, mental confusion, drowsiness, dizziness; also recorded: Blurred vision, dilation of the pupil, cycloplegia, increased ocular tension, loss of taste; also recorded: Urinary hesitancy and retention; also recorded: Nausea, vomiting, constipation, bloated feeling; also recorded: Decreased sweating, urticaria and other dermal manifestations; also recorded: Xerostomia, weakness, insomnia, impotence, suppression of lactation”.
